Experimental data reported in ChEMBL document CHEMBL2346619, “Cardioprotective potential of N,α-L-rhamnopyranosyl vincosamide, an indole alkaloid, isolated from the leaves of Moringa oleifera in isoproterenol induced cardiotoxic rats: in vivo and in vitro studies” (Bioorg Med Chem Lett, 2013).
≈ marks a conversion by molar mass, not a printed value.

Tests used:
Rattus norvegicus [1] = assay: Cardioprotective effect in isoproterenol-induced Wister albino rats assessed as inhibition of heart rate at 40 mg/kg, po for 7 days by Electrocardiographic assay (reference value: 430 +/- 5.16 beats/mins); format: functional
Rattus norvegicus [2] = assay: Cardioprotective effect in isoproterenol-induced Wister albino rats assessed as inflammatory cells at 40 mg/kg, po for 7 days by light microscopy (reference value: 30.1%); format: functional
[3] = Antioxidant activity assessed as super oxide scavenging activity; format: functional
Rattus norvegicus [4] = assay: Cardioprotective effect in isoproterenol-induced Wister albino rats assessed as MDA level in serum per mg protein at 40 mg/kg, po for 7 days (reference value: 2.76 +/- 0.39 nmol/h/mg of protein); format: functional
Rattus norvegicus [5] = assay: Cardioprotective effect in isoproterenol-induced Wister albino rats assessed as tissue viability with less necrotic tissue at 40 mg/kg, po for 7 days by light microscopy (reference value: 52%); format: functional
Rattus norvegicus [6] = assay: Cardioprotective effect in isoproterenol-induced Wister albino rats assessed as SGPT level in serum at 40 mg/kg, po for 7 days (reference value: 76.07 +/- 4.16 U/L); format: functional
Rattus norvegicus [7] = assay: Effect on Wister albino rat LDH level in serum at 40 mg/kg, po for 7 days (reference value: 29.64 +/- 6.71 IU/L); format: ADME, organism-based; design: dose 40 mg/kg, route oral; settings: in vivo, 168 h
[8] = Antioxidant activity assessed as nitric oxide scavenging activity; format: functional
Rattus norvegicus [9] = assay: Cardioprotective effect in isoproterenol-induced Wister albino rats assessed as tissue degradation at 40 mg/kg, po for 7 days by light microscopy (reference value: 55.15%); format: functional
Rattus norvegicus [10] = assay: Effect on Wister albino rat heart rate elevation at 40 mg/kg, po by Electrocardiographic assay (reference value: 265 +/- 3.71 beats/mins); format: ADME, organism-based; design: dose 40 mg/kg, route oral; settings: in vivo
Rattus norvegicus [11] = assay: Effect on Wister albino rat LOOH level in serum per mg of protein at 40 mg/kg, po for 7 days (reference value: 2.90 +/- 0.74 noml/mg of protein); format: ADME, organism-based; design: dose 40 mg/kg, route oral; settings: in vivo, 168 h
Rattus norvegicus [12] = assay: Effect on Wister albino rat tissue degradation at 40 mg/kg, po by light microscopy (reference value: 0%); format: ADME, organism-based; design: dose 40 mg/kg, route oral; settings: in vivo
Rattus norvegicus [13] = assay: Effect on Wister albino rat CK-MB level in serum at 40 mg/kg, po for 7 days (reference value: 84.68 +/- 3.67 IU/L); format: ADME, organism-based; design: dose 40 mg/kg, route oral; settings: in vivo, 168 h
Rattus norvegicus [14] = assay: Cardioprotective effect in isoproterenol-induced Wister albino rats assessed as CK-MB level in serum at 40 mg/kg, po for 7 days (reference value: 146.56 +/- 7.14 IU/L); format: functional
Rattus norvegicus [15] = assay: Cardioprotective effect in isoproterenol-induced Wister albino rats assessed as cTnT level in serum at 40 mg/kg, po for 7 days (reference value: 1.99 +/- 0.06 ng/ml); format: functional
Rattus norvegicus [16] = assay: Effect on Wister albino rat MDA level in serum per mg of protein at 40 mg/kg, po for 7 days (reference value: 0.67 +/- 0.03 nmol/h/mg of protein); format: ADME, organism-based; design: dose 40 mg/kg, route oral; settings: in vivo, 168 h
Rattus norvegicus [17] = assay: Cardioprotective effect in isoproterenol-induced Wister albino rats assessed as inhibition of ST-segment elevation at 40 mg/kg, po for 7 days by Electrocardiographic assay (reference value: 0.390 +/- 0.015 mV); format: functional
Rattus norvegicus [18] = assay: Cardioprotective effect in isoproterenol-induced Wister albino rats assessed as LOOH level in serum per mg protein at 40 mg/kg, po for 7 days (reference value: 7.67 +/- 1.07 noml/mg of protein); format: functional
[19] = test system: Radical scavenging activity; assay: Antioxidant activity assessed as DPPH radical scavenging activity; format: functional
Rattus norvegicus [20] = assay: Effect on Wister albino rat cTnT level in serum at 40 mg/kg, po for 7 days (reference value: 0.66 +/- 0.02 ng/ml); format: ADME, organism-based; design: dose 40 mg/kg, route oral; settings: in vivo, 168 h
Rattus norvegicus [21] = assay: Cardioprotective effect in isoproterenol-induced Wister albino rats assessed as LDH level in serum at 40 mg/kg, po for 7 days (reference value: 216.66 +/- 12.46 IU/L); format: functional
Rattus norvegicus [22] = assay: Effect on Wister albino rat SGPT level in serum at 40 mg/kg, po for 7 days (reference value: 30.25 +/- 3.17 U/L); format: ADME, organism-based; design: dose 40 mg/kg, route oral; settings: in vivo, 168 h
Rattus norvegicus [23] = assay: Effect on Wister albino rat inflammatory cells at 40 mg/kg, po by light microscopy (reference value: 0%); format: ADME, organism-based; design: dose 40 mg/kg, route oral; settings: in vivo
[24] = Antioxidant activity assessed as ABTS radical scavenging activity; format: functional
Rattus norvegicus [25] = assay: Effect on Wister albino rat ST-segment elevation at 40 mg/kg, po by Electrocardiographic assay (reference value: 0.157 +/- 0.003 mV); format: ADME, organism-based; design: dose 40 mg/kg, route oral; settings: in vivo
[26] = Antioxidant activity assessed as hydroxy radical scavenging activity; format: functional

**Q.** For C=C[C@H]1[C@H](O[C@@H]2O[C@H](CO)[C@@H](O)[C@H](O)[C@H]2O)OC=C2C(=O)N3CCc4c(n(O[C@@H]5O[C@@H](C)[C@H](O)[C@@H](O)[C@H]5O)c5ccccc45)[C@H]3C[C@H]21, which Activity (Rattus norvegicus [1]) is on record?
**A.** 260 bpm

**Q.** What about the Activity (Rattus norvegicus [2]) of the same molecule?
**A.** 0%

**Q.** And the IC50 [3]?
**A.** 16.71 µg/mL (≈ 25.3 µM)

**Q.** And the Activity (Rattus norvegicus [4])?
**A.** 0.99 nmol/h/mg protein

**Q.** And the Activity (Rattus norvegicus [5])?
**A.** 20%

**Q.** And the Activity (Rattus norvegicus [6])?
**A.** 58.92 U/L

**Q.** And the Activity (Rattus norvegicus [7])?
**A.** 117.34 IU/L

**Q.** What about the IC50 [8] of the same molecule?
**A.** 7.16 µg/mL (≈ 10.8 µM)

**Q.** And the Activity (Rattus norvegicus [9])?
**A.** 0%

**Q.** And the Activity (Rattus norvegicus [10])?
**A.** 270 bpm

**Q.** What about the Activity (Rattus norvegicus [11]) of the same molecule?
**A.** 2.62 nmol

**Q.** And the Activity (Rattus norvegicus [12])?
**A.** 0%

**Q.** What about the Activity (Rattus norvegicus [13]) of the same molecule?
**A.** 82.12 IU/L

**Q.** What about the Activity (Rattus norvegicus [14]) of the same molecule?
**A.** 92.01 IU/L

**Q.** What about the Activity (Rattus norvegicus [15]) of the same molecule?
**A.** 0.67 ng/mL

**Q.** What about the Activity (Rattus norvegicus [16]) of the same molecule?
**A.** 0.79 nmol/h/mg protein

**Q.** And the Activity (Rattus norvegicus [17])?
**A.** 0.22 mV

**Q.** And the Activity (Rattus norvegicus [18])?
**A.** 4.1 nmol

**Q.** And the IC50 [19]?
**A.** 37.76 µg/mL (≈ 57.2 µM)

**Q.** And the Activity (Rattus norvegicus [20])?
**A.** 0.62 ng/mL

**Q.** And the Activity (Rattus norvegicus [21])?
**A.** 160.72 IU/L

**Q.** What about the Activity (Rattus norvegicus [22]) of the same molecule?
**A.** 22.11 U/L

**Q.** What about the Activity (Rattus norvegicus [23]) of the same molecule?
**A.** 0%

**Q.** What about the IC50 [24] of the same molecule?
**A.** 29.65 µg/mL (≈ 44.9 µM)

**Q.** What about the Activity (Rattus norvegicus [25]) of the same molecule?
**A.** 0.14 mV

**Q.** And the IC50 [26]?
**A.** 4.95 µg/mL (≈ 7.49 µM)
